From patent publication US5773421A, “Antifungal fusacandins” (Abbott Laboratories, priority 1995, dated 1998)
In brackets after ≈: the same amount, converted by molar mass.

Experiments:
Assay in all cases: MIC by agar dilution method
Type in all cases: cell-based
[1] = tested on: Candida albicans ATCC 38247; details: ATCC38247; Table 6c; IV Candida albicans ATCC 38247; agar dilution; read-out: MIC IV
Description: (§1) Minimal inhibitory concentrations (MICs) were determined by an agar dilution method. The test compounds were serially diluted in MeOH and 0.2 mL portions were mixed with 20 mL of molten, cooled Sabouraud dextrose agar (Difco). Yeast cell inoculum was prepared by growing cultures on Sabouraud dextrose agar for 18 hours at 32° C. and suspending the cells in phosphate buffered saline. Filamentous fungi were grown under the same conditions for 4 days to obtain spores. The inoculum level for all cultures was adjusted to 10^4 cells using a Petroff-Hauser cell counter. The glutarimide antifungal compounds cycloheximide or amphotericin B were used as a control. Inoculated test plates were incubated at 32° C. and examined after 20 hours.

[2] = tested on: Candida albicans ATCC 10231; details: ATCC10231; Table 6c; I Candida albicans ATCC 10231; agar dilution; read-out: MIC I
Description: as §1

Candida albicans 579a = details: Table 6c; II Candida albicans 579a; agar dilution; read-out: MIC II
Description: as §1

Candida albicans CCH 442 = details: CCH442; Table 6c, 3rd value column (head printed II); III Candida albicans CCH 442; agar dilution; read-out: MIC II
Description: as §1

[3] = tested on: Candida albicans ATCC 62376; details: ATCC62376; Table 6c; V Candida albicans ATCC 62376; agar dilution; read-out: MIC V
Description: as §1

Compound | MIC [1] [µg/mL] | MIC [2] [µg/mL] | MIC (Candida albicans 579a) [µg/mL] | MIC (Candida albicans CCH 442) [µg/mL] | MIC [3] [µg/mL]
CCCCC/C=C/C=C/[C@@H](O)C/C=C/C=C/C(=O)O[C@@H]1[C@@H](O)[C@H](c2c(O)cc(O)cc2CO)O[C@H](CO)[C@H]1O[C@@H]1O[C@H](COC(=O)c2ccc(-c3ccc(OCc4ccccc4)cc3)cc2)[C@H](O)[C@H](O)[C@H]1O[C@@H]1O[C@H](CO)[C@H](O)[C@H](O)[C@H]1O [Example 37] | 3.12 (≈ 2.69 µM) | 1.56 (≈ 1.35 µM) | 1.56 (≈ 1.35 µM) | 3.12 (≈ 2.69 µM) | 1.56 (≈ 1.35 µM)
CCCCC/C=C/C=C/[C@@H](O)C/C=C/C=C/C(=O)O[C@@H]1[C@@H](O)[C@H](c2c(O)cc(O)cc2CO)O[C@H](CO)[C@H]1O[C@@H]1O[C@H](COC(=O)c2ccc(-c3ccccc3OC)cc2)[C@H](O)[C@H](O)[C@H]1O[C@@H]1O[C@H](CO)[C@H](O)[C@H](O)[C@H]1O [Example 40] | 6.25 (≈ 5.77 µM) | 6.25 (≈ 5.77 µM) | 1.56 (≈ 1.44 µM) | 6.25 (≈ 5.77 µM) | 1.56 (≈ 1.44 µM)
CCCCC/C=C/C=C/[C@@H](O)C/C=C/C=C/C(=O)O[C@@H]1[C@@H](O)[C@H](c2c(O)cc(O)cc2CO)O[C@H](CO)[C@H]1O[C@@H]1O[C@H](COC(=O)c2ccc(-c3ccc(OCCC)cc3)cc2)[C@H](O)[C@H](O)[C@H]1O[C@@H]1O[C@H](CO)[C@H](O)[C@H](O)[C@H]1O [Example 42] | 0.78 (≈ 0.702 µM) | 0.78 (≈ 0.702 µM) | 0.78 (≈ 0.702 µM) | 0.78 (≈ 0.702 µM) | 0.78 (≈ 0.702 µM)

Further lines, results first:

MIC [1] [µg/mL] | MIC [2] [µg/mL] | MIC (Candida albicans 579a) [µg/mL] | MIC (Candida albicans CCH 442) [µg/mL] | MIC [3] [µg/mL] | Compound
50 (≈ 42.3 µM) | 25 (≈ 21.2 µM) | 25 (≈ 21.2 µM) | 25 (≈ 21.2 µM) | 12.5 (≈ 10.6 µM) | CCCCC/C=C/C=C/[C@@H](O)C/C=C/C=C/C(=O)O[C@@H]1[C@@H](O)[C@H](c2c(O)cc(O)cc2CO)O[C@H](CO)[C@H]1O[C@@H]1O[C@H](COC(=O)c2ccc(-c3ccc(OCCCCCCCC)cc3)cc2)[C@H](O)[C@H](O)[C@H]1O[C@@H]1O[C@H](CO)[C@H](O)[C@H](O)[C@H]1O [Example 38]
1.56 (≈ 1.44 µM) | 1.56 (≈ 1.44 µM) | 0.78 (≈ 0.72 µM) | 1.56 (≈ 1.44 µM) | 3.12 (≈ 2.88 µM) | CCCCC/C=C/C=C/[C@@H](O)C/C=C/C=C/C(=O)O[C@@H]1[C@@H](O)[C@H](c2c(O)cc(O)cc2CO)O[C@H](CO)[C@H]1O[C@@H]1O[C@H](COC(=O)c2cccc(-c3ccc(OC)cc3)c2)[C@H](O)[C@H](O)[C@H]1O[C@@H]1O[C@H](CO)[C@H](O)[C@H](O)[C@H]1O [Example 39]
6.25 (≈ 5.85 µM) | 12.5 (≈ 11.7 µM) | 6.25 (≈ 5.85 µM) | 6.25 (≈ 5.85 µM) | 12.5 (≈ 11.7 µM) | CCCCC/C=C/C=C/[C@@H](O)C/C=C/C=C/C(=O)O[C@@H]1[C@@H](O)[C@H](c2c(O)cc(O)cc2CO)O[C@H](CO)[C@H]1O[C@@H]1O[C@H](COC(=O)c2ccc(-c3ccc(O)cc3)cc2)[C@H](O)[C@H](O)[C@H]1O[C@@H]1O[C@H](CO)[C@H](O)[C@H](O)[C@H]1O [Example 41]
0.78 (≈ 0.702 µM) | 1.56 (≈ 1.4 µM) | 0.78 (≈ 0.702 µM) | 0.78 (≈ 0.702 µM) | 0.78 (≈ 0.702 µM) | CCCCC/C=C/C=C/[C@@H](O)C/C=C/C=C/C(=O)O[C@@H]1[C@@H](O)[C@H](c2c(O)cc(O)cc2CO)O[C@H](CO)[C@H]1O[C@@H]1O[C@H](COC(=O)c2ccc(-c3ccc(OC(C)C)cc3)cc2)[C@H](O)[C@H](O)[C@H]1O[C@@H]1O[C@H](CO)[C@H](O)[C@H](O)[C@H]1O [Example 43]
